Laboratory results taken from US12496294B2, “Methods for improving exercise performance and endurance thereof” (NANJING NUTRABUILDING BIO-TECH CO., LTD., priority 2020, dated 2025).

Key:
AMPK = AMPK level in red blood cells after treadmill exhaustion test; type: in vivo, mice; settings: group supplemented with high dose of DHB (26 mg/kg daily); FIG. 10
Protocol: Prior to the experiment, all mice were acclimatized on a treadmill by running at 15% incline and at 10 m/min for two days. After the 2-day acclimatization, 40 mice were randomly divided into four groups as followings (10 for each group): Control group (normal diet supplemented with distilled water), Dihydroberberine (high) group (normal diet supplemented with dihydroberberine 26 mg/kg daily), Dihydroberberine (medium) group: (normal diet supplemented with dihydroberberine 19.5 mg/kg daily), Dihydroberberine (low) group (normal diet supplemented with dihydroberberine 13 mg/kg daily). Each group was fed on a normal diet, other than that, three experimental groups were supplemented with dihydroberberine daily for two consecutive months, while the control group was only supplemented with distilled water at the same time. Exercise endurance of the mice was evaluated by treadmill running. […] At the end point, the running distance, highest running speed, total running time of the mice were recorded^[7].
After the treadmill exhaustion test, blood samples were collected from the mice into heparin tubes. […] The levels of superoxide dismutase (SOD), catalase (CAT), and malondialdehyde (MDA) in the plasma were determined using commercially available kits. […]

mice [1] = experiment: SOD, CAT and MDA levels in plasma after treadmill exhaustion test (commercial kits); type: in vivo; settings: for SOD level in plasma: FIG. 4; for CAT level in plasma: FIG. 5; for MDA level in plasma: FIG. 6
Protocol: (§1) Prior to the experiment, all mice were acclimatized on a treadmill by running at 15% incline and at 10 m/min for two days. After the 2-day acclimatization, 40 mice were randomly divided into four groups as followings (10 for each group): Control group (normal diet supplemented with distilled water), Dihydroberberine (high) group (normal diet supplemented with dihydroberberine 26 mg/kg daily), Dihydroberberine (medium) group: (normal diet supplemented with dihydroberberine 19.5 mg/kg daily), Dihydroberberine (low) group (normal diet supplemented with dihydroberberine 13 mg/kg daily). Each group was fed on a normal diet, other than that, three experimental groups were supplemented with dihydroberberine daily for two consecutive months, while the control group was only supplemented with distilled water at the same time. Exercise endurance of the mice was evaluated by treadmill running. At the beginning of the formal experiment, mice were placed on treadmill, running at 10 m/min for 20 minutes, and then the running speed was increased by 2 m/min every 2nd minutes. End point occurs if the mouse touched the shock grid of the treadmill three times or on the treadmill for 5 consecutive seconds without attempting to reengage the treadmill. At the end point, the running distance, highest running speed, total running time of the mice were recorded^[7].
(§2) After the treadmill exhaustion test, blood samples were collected from the mice into heparin tubes. By centrifugation at 4500 rpm for 15 minutes, plasma was separated from the top layer of the whole blood and red blood cells were also separated from the lower layer of the blood. The levels of superoxide dismutase (SOD), catalase (CAT), and malondialdehyde (MDA) in the plasma were determined using commercially available kits.

red blood cells = experiment: ROS, 2,3-DPG and T-AOC in red blood cells after treadmill exhaustion test (commercial kits); type: in vivo, mice; settings: for T-AOC level in the red blood cell: FIG. 9
Protocol: as §1, §2
The reactive oxygen species (ROS), 2,3-diphosphoglycerate (2,3-DPG), and total antioxidant capacity (T-AOC) in red blood cells were also determined using commercially available kits.

mice [2] = experiment: Treadmill running exercise endurance test in mice after DHB supplementation; type: in vivo; settings: DHB 13, 19.5 or 26 mg/kg daily for two consecutive months, vs control group
Protocol: as §1
FIGS. 1-3 show the exercise performance and endurance of mice after supplemented with DHB for two consecutive months.

[3] = groups with administration of DHB (13, 19.5, 26 mg/kg daily, two months)
[4] = high-dose group (26 mg/kg daily), p<0.001

## COc1ccc2c(c1OC)CN1CCc3cc4c(cc3C1=C2)OCO4 [DHB, dihydroberberine]
AMPK
  AMPK level in red blood cells: decreased slightly
Mice [1]; groups supplemented with DHB (13, 19.5, 26 mg/kg daily, two months) vs control
  SOD level in plasma: higher than the control group
Mice [1]; [3]
  CAT level in plasma: increased
  MDA level in plasma: increased
Mice [1]; high dose group (26 mg/kg daily), p<0.05
  CAT level in plasma: increased significantly
Mice [1]; high-dose DHB group (26 mg/kg daily), p<0.01
  SOD level in plasma: increased significantly
Mice [1]; [4]
  MDA level in plasma: increased significantly
Mice [1]; middle dose group (19.5 mg/kg daily), p<0.05
  CAT level in plasma: increased significantly
Red blood cells; groups supplemented with DHB (13, 19.5, 26 mg/kg daily, two months), FIG. 7
  ROS level in the red blood cell: increased
Red blood cells; groups supplemented with DHB (13, 19.5, 26 mg/kg daily, two months), FIG. 8
  2,3-DPG level in the red blood cell: increased
Red blood cells; groups supplemented with DHB (13, 19.5, 26 mg/kg daily, two months)
  T-AOC level in the red blood cell: increased
Red blood cells; [4]
  T-AOC level in the red blood cell: increased significantly
Mice [2]; FIG. 1
  running distance: enhanced endurance and better performance
Mice [2]; FIG. 2
  highest running speed: enhanced endurance and better performance
Mice [2]; FIG. 3
  running time: enhanced endurance and better performance
